# Test results: patent US20030022811A1, “Favorable modulation of health-related quality of life and health-related quality-adjusted time-to-progression of disease in patients with prostate cancer” (priority 2001, published 2003)
# “Also recorded” adds a separate entry of the source.
# Experiments:
# Type in all cases: in vivo, human
# [1] = test system: patients having hormone refractory prostate cancer (HRPCa); experiment: Time to disease progression, PSA progression and markers of bone metabolism
# Experimental: Patients received treatment with either 10 mg (N=89) or 2.5 mg (N=95) of atrasentan or placebo (N=104) until experiencing a clinical event indicative of disease progression as defined by palliative opiate treatment of new bone or visceral pain, palliative radiation treatment of new bone pain, or new tumor growth symptoms requiring intervention or treatment with chemotherapy.
# [2] = test system: patients having hormone refractory prostate cancer (HRPCa); experiment: Health-related quality-adjusted time-to-progression (QATTP), Kaplan-Meier product limit analysis; details: for health-related QATTP, difference between the atrasentan treatment groups: 10 mg vs 2.5 mg
# Experimental: The health-related QATTP model used for the practice of this invention expresses progression-free time as an equally preferable amount of time spent in full health. This is achieved by using patient-reported health-related QoL, as measured for the duration of observation or progression-free interval, to weight progression-free time. […] Patients received treatment with either 10 mg (N=89) or 2.5 mg (N=95) of atrasentan or placebo (N=104) until experiencing a clinical event indicative of disease progression as defined by palliative opiate treatment of new bone or visceral pain, palliative radiation treatment of new bone pain, or new tumor growth symptoms requiring intervention or treatment with chemotherapy. Patient-reported health-related QoL data were collected with the EORTC QLQ-30 and the FACT-G and FACT-P, both of which were administered at baseline, at six week intervals and at the patient's final visit. A patient's transformed domain score and total score from both the EORTC QLQ-30 and FACT were used to weight the time-to-progression outcome data. Transformed domain scores ranged between 0 and 1, so the reported health-related QATTP outcome was never larger than actual time to progression. Possible scores for the fourteen EORTC domains each range between […]. For six domains (physical, emotional, role, social, and cognitive functioning and global score), a higher score means a better health-related QoL. These six scores were transformed to weights by dividing the patient-reported scores by 100. For the remaining eight EORTC domains, a higher score indicates worse symptoms (a worse health-related QoL). These domains are pain, fatigue, nausea and vomiting, appetite loss, […], sleep disturbance, diarrhea, and constipation. These eight scores were converted to weight adjustments by dividing them by 100 and subtracting the result from the integer 1 to provide consistent directionality of response. […] Each patient's health-related QATTP was computed as the […] of the health-related QoL weights and the duration for which that patient experienced that health-related QoL. If a patient experienced a clinical event between two health-related QoL assessments, the set of health-related QoL domain scores immediately prior to the event were carried forward to the time of the clinical event. The mean and median health-related QATTP outcomes were then estimated using Kaplan-Meier product limit methodology (Journal of the American Statistical Association, vol.53, 1958, pp 457-481). The area under a Kaplan-Meier survival curve conveys an estimated mean health-related QATTP. This analysis was applied to both intent-to-treat (ITT) and per protocol population data. All health-related QATTP comparisons between atrasentan and placebo treatment groups were based on log-rang test statistical significance at an α of 0.05. Results of the Kaplan-Meier product limit survival method analysis are reported in Table 2 (Intent to Treat) and Table 3 (Per Protocol Population). Mean and median health-related QATTP are shown by treatment arm. Log-rank tests comparing the differences between treatment groups are also reported.
# [3] = test system: patients having hormone refractory prostate cancer (HRPCa); experiment: Area under the Curve (AUC) analysis of health-related QoL domain scores, one year follow-up
# Text: The Kaplan-Meier product limit method can provide biased results if study data are obtained under certain conditions such as staggered entry of subjects into the study and/or incomplete follow-up (Biometrics. 1989; 5:781-795). Thus, a second study was implemented to verify that the conclusions derived from the Kaplan-Meier would remain robust to the length of follow-up. The assumption was that all patients were followed for one year. Patients who discontinued from the study prior to one year of observation had their last observation for all health-related QoL domains carried forward through the remainder of the year. Similarly, patients who had not completed one year of observation had their health-related QoL data carried forward through one year. If the patient experienced a clinical event within the one year period, the last observation was not carried forward. The Area under the Curve (AUC) value for each domain was computed by multiplying the health-related QoL domain score by the respective duration of that score. Finally, AUC values were aggregated across all subjects within each respective treatment group (atrasentan (10 mg), atrasentan (2.5 mg), and placebo). Aggregated AUC values for each domain were compared for differences between treatment groups using a t-test.
# [4] = 10 mg and 2.5 mg, Per Protocol subjects
# [5] = At. 10 mg, adjusted by FACT Functional Well Being, Intent to Treat
# [6] = At. 10 mg, adjusted by FACT Physical Well Being, Per Protocol
compound,measurement,setting,value
"CCCCN(CCCC)C(=O)CN1C[C@H](c2ccc3c(c2)OCO3)[C@@H](C(=O)O)[C@@H]1c1ccc(OC)cc1 [atrasentan, (2R,3R,4S)-2-(4-methoxyphenyl)-4-(1,3-benzodioxol-5-yl)-1-(N,N-di(n-butyl)aminocarbonylmethyl)pyrrolidine-3-carboxylic]",time to disease progression compared to placebo,"[1]; 10 mg and 2.5 mg, Per Protocol analysis",delayed
same,markers of bone metabolism,[1]; [4],attenuated increases
same,time to prostate-specific antigen (PSA) progression,[1]; [4],delayed
same,time to disease or PSA progression across treatment groups,[1]; intent-to-treat population,no statistically significant differences
same,mean health-related QATTP vs placebo,"[2]; 2.5 mg, per protocol",longer
same,log rank test of health-related QATTP vs placebo,"[2]; 2.5 mg, per protocol, all QoL domains except dyspnea and functional well-being",statistically significant
same,"mean and median health-related QATTP, atrasentan treatment groups vs placebo","[2]; 10 mg and 2.5 mg, intent-to-treat population",no statistically significant differences
same,"health-related QATTP, difference between the atrasentan treatment groups",[2]; intent-to-treat population,no statistically significant differences
same,"health-related QATTP, difference between the atrasentan treatment groups","[2]; per protocol, any QoL domain",no statistical differences
same,health-related QATTP trend vs placebo,"[2]; 10 mg, per protocol, dyspnea, global score, emotional well-being, social well-being, p<0.10",trend favored
same,weighted health-related QATTP vs placebo group,"[2]; 10 mg, per protocol, p<0.05, all QoL domains except dyspnea, global score, emotional, social and functional well-being",significantly longer
same,Health-Related QATTP Mean,"[2]; At. 2.5 mg, adjusted by EORTC Cognitive Functioning, Intent to Treat",180 days
same,Health-Related QATTP Mean,"[2]; At. 2.5 mg, adjusted by EORTC Cognitive Functioning, Per Protocol",190 days
same,Health-Related QATTP Mean,"[2]; At. 2.5 mg, adjusted by EORTC Constipation, Intent to Treat",180 days
same,Health-Related QATTP Mean,"[2]; At. 2.5 mg, adjusted by EORTC Constipation, Per Protocol",190 days
same,Health-Related QATTP Mean,"[2]; At. 2.5 mg, adjusted by EORTC Dyspnea, Per Protocol",180 days
same,Health-Related QATTP Mean,"[2]; At. 2.5 mg, adjusted by FACT Emotional Well Being, Intent to Treat",180 days
same,Health-Related QATTP Mean,"[2]; At. 2.5 mg, adjusted by FACT Social/Family Well Being, Intent to Treat",160 days
same,Health-Related QATTP Mean,"[2]; At. 2.5 mg, adjusted by FACT-G, Per Protocol",180 days
same,Health-Related QATTP Mean,"[2]; At. 2.5 mg, adjusted by FACT-P, Per Protocol",160 days
same,Health-Related QATTP Mean,"[2]; At. 10 mg, adjusted by EORTC Role Functioning, Intent to Treat",180 days
same,Health-Related QATTP Mean,"[2]; At. 10 mg, adjusted by EORTC Social Functioning, Intent to Treat",190 days
same,Health-Related QATTP Mean,[2]; [5],140 days
same,Health-Related QATTP Median,[2]; [5],98 days
same,Health-Related QATTP Mean,[2]; [6],190 days
same,Health-Related QATTP Median,[2]; [6],130 days
same,Health-Related QATTP Mean,"[2]; At. 10 mg, adjusted by FACT-G, Intent to Treat",160 days
same,Health-Related QATTP Median,"[2]; At. 10 mg, adjusted by FACT-G, Per Protocol",130 days
same,health-related QATTP compared to placebo,"[2]; both 10 mg and 2.5 mg arms, per protocol analysis",improved; also recorded: longer
same,AUC results vs placebo group,"[3]; 2.5 mg, all domains except dyspnea, social/family, functional well-being and FACT-P",significantly improved
same,"AUC of health-related QoL domain scores, atrasentan treatment vs placebo",[3]; Intent to Treat population,no statistical differences
same,"AUC of health-related QoL domain scores, 10 mg vs 2.5 mg groups",[3]; per-protocol population,not statistically differentiable
same,"AUC of health-related QoL domain scores, atrasentan treatment groups vs placebo","[3]; per-protocol population, every QoL domain score",strong trends in favor
same,AUC for health-related QoL domain scores vs placebo,"[3]; physical functioning, social functioning and pain domains",significantly (p<0.05) longer
